Among the test systems are UACC-257 melanoma; UACC-62 melanoma; M14 melanoma; DU-145 prostate; SK-MEL-2 melanoma; HOP-62 NSCLC; 786-0 renal; SN12C renal; SF-295 CNS; K-562 leukemia; SK-OV-3 ovarian; UO-31 renal; BT-549 breast; OVCAR-4 ovarian; PC-3 prostate; NCI/ADR-RES ovarian; LOX IMVI melanoma; OVCAR-5 ovarian; KM12 colon; RXF 393 renal.
What all share (assay): growth of human tumour cells (NCI), 48 h

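Five concentrations, 48 hours, 96-well plates. TGI denotes the concentration required for complete inhibition of growth.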

With `CN(CCN)[C@H](CSSC[C@@H](c1ccccc1O)N(C)CCN)c1ccccc1O`, the TGI in the test on UACC-257 melanoma was found to be 32.8 µM; with UACC-62 melanoma, 24.5 µM; with M14 melanoma it was 33.5 µM; in the test on DU-145 prostate, 33.1 µM; in the test with SK-MEL-2 melanoma, 38.9 µM; in the test with HOP-62 NSCLC, 28.6 µM. Moreover, the TGI with 786-0 renal came to 32.6 µM; in the test with SN12C renal it was 23.2 µM; in the test with SF-295 CNS it was 20.4 µM; in the test with K-562 leukemia it was 24.3 µM; in the test with SK-OV-3 ovarian, 25 µM; in the test with UO-31 renal, 23.9 µM. Also, the TGI in the test with BT-549 breast stood at 25 µM; in the test on OVCAR-4 ovarian, 34 µM; with PC-3 prostate it was 30.2 µM; in the test with NCI/ADR-RES ovarian it was 23.5 µM; with LOX IMVI melanoma, 28.5 µM; in the test on OVCAR-5 ovarian, 28.6 µM. Moreover, the TGI stood at 28.2 µM in the test with KM12 colon and 43.7 µM with RXF 393 renal.
For the molecule `COc1ccc(-c2nc3ccccc3c(=O)[nH]2)cc1`, the TGI in the test on UACC-257 melanoma, in the test with UACC-62 melanoma, with M14 melanoma, with DU-145 prostate, with SK-MEL-2 melanoma and in the test on HOP-62 NSCLC was above 100 µM in each case. Also, the TGI in the test with 786-0 renal, with SN12C renal, in the test on SF-295 CNS, in the test on K-562 leukemia, in the test on SK-OV-3 ovarian and with UO-31 renal was above 100 µM in each case. For the same molecule, the TGI in the test with BT-549 breast is above 100 µM; with OVCAR-4 ovarian, 95.1 µM; in the test on PC-3 prostate, above 100 µM; with NCI/ADR-RES ovarian it was above 100 µM; with LOX IMVI melanoma, above 100 µM; in the test with OVCAR-5 ovarian, above 100 µM. The TGI with KM12 colon and with RXF 393 renal was above 100 µM each time.
For the molecule `O=c1c(-c2nc3ccccc3c3ccccc3c2=O)nc2ccccc2c2ccccc12`, the TGI in the test on UACC-257 melanoma, with UACC-62 melanoma, in the test with M14 melanoma, with DU-145 prostate, in the test on SK-MEL-2 melanoma and with HOP-62 NSCLC was above 100 µM throughout. For the same molecule, the TGI with 786-0 renal is above 100 µM; in the test on SN12C renal, 99.1 µM; in the test with SF-295 CNS it was above 100 µM; with K-562 leukemia it was above 100 µM; in the test with SK-OV-3 ovarian it was above 100 µM; in the test on UO-31 renal, above 100 µM. For the same molecule, the TGI is above 100 µM with BT-549 breast; above 100 µM with OVCAR-4 ovarian; 89.6 µM in the test on PC-3 prostate; above 100 µM in the test with NCI/ADR-RES ovarian; above 100 µM in the test on LOX IMVI melanoma; above 100 µM in the test with OVCAR-5 ovarian. In addition, the TGI is above 100 µM in the test on KM12 colon and 82.9 µM with RXF 393 renal.
Regarding `Nc1nc(Sc2ccc([N+](=O)[O-])c3nonc23)c2[nH]cnc2n1`, the TGI in the test with UACC-257 melanoma was 9.14 µM; in the test on UACC-62 melanoma it was 11.2 µM; in the test with M14 melanoma, 8.72 µM; in the test on DU-145 prostate, 16.2 µM; with SK-MEL-2 melanoma, 6.32 µM; with HOP-62 NSCLC, 18.1 µM. For the same molecule, the TGI was determined as 3.18 µM in the test on 786-0 renal; 27.2 µM in the test with SN12C renal; 16.1 µM in the test on SF-295 CNS; 2.41 µM in the test on K-562 leukemia; 9.95 µM in the test on SK-OV-3 ovarian; 2.07 µM in the test with UO-31 renal. The TGI with BT-549 breast stood at 18 µM; in the test with OVCAR-4 ovarian it was 15.9 µM; in the test with PC-3 prostate it was 18 µM; in the test on NCI/ADR-RES ovarian it was 25.4 µM; in the test with LOX IMVI melanoma it was 11.7 µM; in the test with OVCAR-5 ovarian, 17.3 µM. The TGI with KM12 colon is 15.3 µM; in the test with RXF 393 renal, 8.32 µM.
With `Nc1cccc(-c2cc(=O)c3cc4c(cc3[nH]2)OCO4)c1`, the TGI was above 100 µM with UACC-257 melanoma; 11.5 µM with UACC-62 melanoma; above 79.6 µM in the test on M14 melanoma; above 100 µM with DU-145 prostate; 5.72 µM in the test on SK-MEL-2 melanoma; 29.2 µM in the test on HOP-62 NSCLC. The TGI in the test on 786-0 renal was above 100 µM; in the test with SN12C renal, above 100 µM; in the test with SF-295 CNS, above 26.4 µM; in the test with K-562 leukemia, above 100 µM; in the test on SK-OV-3 ovarian it was above 28.5 µM; with UO-31 renal, above 75.9 µM. For the same molecule, the TGI in the test on BT-549 breast was above 100 µM; in the test on OVCAR-4 ovarian it was above 100 µM; in the test on PC-3 prostate, 13 µM; in the test with NCI/ADR-RES ovarian it was 2.95 µM; with LOX IMVI melanoma it was 59.7 µM; in the test on OVCAR-5 ovarian, above 100 µM. The TGI in the test on KM12 colon was above 21.6 µM; in the test with RXF 393 renal, above 100 µM.
For `CCOC(=O)C(O)(CC1=NC(C(=O)OC)(C(=O)OC)C(c2cccc(C=O)c2)O1)C(=O)OCC` (stereo not drawn), the TGI in the test on UACC-257 melanoma, in the test on UACC-62 melanoma, in the test with M14 melanoma, with DU-145 prostate, with SK-MEL-2 melanoma and with HOP-62 NSCLC was above 100 µM each time. Moreover, the TGI in the test with 786-0 renal, in the test with SN12C renal, in the test on K-562 leukemia, in the test on SK-OV-3 ovarian, in the test on UO-31 renal and in the test with BT-549 breast was above 100 µM in each case. Also, the TGI in the test on OVCAR-4 ovarian, in the test on PC-3 prostate, in the test with NCI/ADR-RES ovarian, in the test with LOX IMVI melanoma, in the test with OVCAR-5 ovarian and in the test on KM12 colon was above 100 µM in each case. The same molecule yielded a TGI in the test on RXF 393 renal above 100 µM.
With `CCOP1(=O)CC(C)=C(Cl)C(OC)C1` (stereo not drawn), the TGI in the test on UACC-257 melanoma, with UACC-62 melanoma, with M14 melanoma, in the test on DU-145 prostate, in the test with SK-MEL-2 melanoma and in the test on HOP-62 NSCLC was above 100 µM throughout. Besides, the TGI was above 100 µM with 786-0 renal; above 100 µM in the test on SN12C renal; above 100 µM in the test with SF-295 CNS; 77.3 µM in the test with K-562 leukemia; above 100 µM in the test on SK-OV-3 ovarian; above 100 µM in the test on BT-549 breast. The TGI with OVCAR-4 ovarian, in the test with PC-3 prostate, in the test on NCI/ADR-RES ovarian, in the test with LOX IMVI melanoma, in the test on OVCAR-5 ovarian and in the test on KM12 colon was above 100 µM throughout. In addition, the TGI in the test on RXF 393 renal was above 100 µM.

(Values after PubChem BioAssay (NCI).)
